# Laboratory results as given in ChEMBL document CHEMBL1201862, “PubChem BioAssay data set” (2004).
# “And” between values parts separate entries of the source, which are not always exact repeats. Equal entries are not always repeated.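 Where inhibition never reached the appropriate level, the endpoint shown equals the highest concentration tested. Otherwise, values were interpolated linearly from a five-concentration, 48-hour dose response in 96-well plates. GI50 = concentration required for 50% inhibition of growth.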 The source made the active and inactive calls. Rule as the data show it: active = GI50 up to about 1.1 µM and inactive = higher.
# Tests used:
# Experiment in all cases: DTP human tumour cell line panel, 48 h
# [1] = system: HOP-92
# [2] = system: IGROV-1
# [3] = system: RXF 393
# [4] = system: SNB-75
# [5] = system: TK-10
# [6] = system: UACC-257
# [7] = system: A498
# [8] = system: A549
# [9] = system: ACHN
# [10] = system: CAKI-1
# [11] = system: COLO 205
# [12] = system: DU-145
# [13] = system: EKVX
# [14] = system: HCT-116
# [15] = system: HCT-15
# [16] = system: HT-29
# [17] = system: KM12
# [18] = system: M14
# [19] = system: MDA-MB-231
# [20] = system: MDA-MB-435
# [21] = system: MDA-N
# [22] = system: NCI-H226
# [23] = system: NCI-H23
# [24] = system: NCI/ADR-RES
# [25] = system: OVCAR-3
# [26] = system: OVCAR-4
# [27] = system: OVCAR-5
# [28] = system: OVCAR-8
# [29] = system: PC-3
# [30] = system: SF-268
# [31] = system: SF-295
# [32] = system: SF-539
# [33] = system: SK-MEL-28
# [34] = system: SK-MEL-5
# [35] = system: SN12C
# [36] = system: SNB-19
# [37] = system: SW-620
# [38] = system: U-251
# [39] = system: UO-31
# [40] = system: HCC 2998
# [41] = system: HL-60
# [42] = system: HOP-62
# [43] = system: K562
# [44] = system: LOX IMVI
# [45] = system: NCI-H460
# [46] = system: NCI-H522
# [47] = system: SK-OV-3
# [48] = system: SR
# [49] = system: UACC-62
Compound,GI50 [1],GI50 [2],GI50 [3],GI50 [4],GI50 [5],GI50 [6],GI50 [9],GI50 [10],GI50 [15] [µM],GI50 [16],GI50 [18],GI50 [22],GI50 [25],GI50 [26],GI50 [27],GI50 [28],GI50 [30],GI50 [31],GI50 [33],GI50 [34],further results
COC(=O)/C=C/c1cc(OC)c2c(c1)C(C(=O)OC)C(c1ccc(OC)c(OC)c1)O2 (configuration not stated),55.8 µM (inactive) and > 88.3 µM (inactive),2.27 µM (inactive),4.94 µM (inactive),1.95 µM (inactive),> 100 µM (inactive),> 100 µM (inactive),–,–,–,–,–,–,–,–,–,–,–,–,–,–,–
CC(=O)N1C(=O)CC2(N=C(C)CC2=O)c2ccccc21 (configuration not stated),> 10 µM (inactive),> 10 µM (inactive),> 10 µM (inactive),> 10 µM (inactive),> 10 µM (inactive),–,> 10 µM (inactive),> 10 µM (inactive),> 10,> 10 µM (inactive),> 10 µM (inactive),> 10 µM (inactive),> 10 µM (inactive),> 10 µM (inactive),> 10 µM (inactive),> 10 µM (inactive),> 10 µM (inactive),> 10 µM (inactive),> 10 µM (inactive),> 10 µM (inactive),GI50 [7]: > 10 µM (inactive); GI50 [8]: > 10 µM (inactive); GI50 [11]: > 10 µM (inactive); GI50 [12]: > 10 µM (inactive); GI50 [13]: > 10 µM (inactive); GI50 [14]: > 10 µM (inactive); GI50 [17]: > 10 µM (inactive); GI50 [19]: > 10 µM (inactive); GI50 [20]: > 10 µM (inactive); GI50 [21]: > 10 µM (inactive); GI50 [23]: > 10 µM (inactive); GI50 [24]: > 10 µM (inactive); GI50 [29]: > 10 µM (inactive); GI50 [32]: 0.0132 µM (active); GI50 [35]: > 10 µM (inactive); GI50 [36]: > 10 µM (inactive); GI50 [37]: > 10 µM (inactive); GI50 [38]: > 10 µM (inactive); GI50 [39]: 1.49 µM (inactive)
O=C(N/N=C/c1cc(Cl)cc(Cl)c1O)c1ccccc1O,–,1.69 µM (inactive),1.31 µM (inactive),3.05 µM (inactive),3.06 µM (inactive),1.63 µM (inactive),0.346 µM (active),0.723 µM (active),0.395,3.49 µM (inactive),0.521 µM (active),1.37 µM (inactive),0.282 µM (active),0.22 µM (active),2.53 µM (inactive),0.344 µM (active),0.351 µM (active),0.526 µM (active),1 µM (active),1.28 µM (inactive),GI50 [40]: 3.18 µM (inactive); GI50 [41]: 0.175 µM (active); GI50 [42]: 1.67 µM (inactive); GI50 [43]: 0.519 µM (active); GI50 [44]: 0.303 µM (active); GI50 [45]: 0.537 µM (active); GI50 [46]: 0.254 µM (active); GI50 [47]: 0.929 µM (active); GI50 [36]: 1.91 µM (inactive); GI50 [48]: 0.281 µM (active); GI50 [37]: 0.735 µM (active); GI50 [38]: 0.445 µM (active); GI50 [49]: 0.254 µM (active); GI50 [39]: 1.69 µM (inactive)
